Experimental data taken from PMC6268492, “Synthesis and Antiangiogenic Activity of Novel Gambogic Acid Derivatives” (Molecules, 2012).
Read-outs that look alike come from different tables or passages of the source.

Tests used:
A549 = assay: MTT assay, cell proliferation; format: cell-based; conditions: 24 h, read-out: IC50, inhibition of cell proliferation
Method: (§1) HepG2, HCT116, HeLa and LO2 cell lines were cultured in DMEM containing 10% fetal bovine serum (FBS), 100 IU/mL penicillin and 100 µg/mL streptomycin; A549 and K562 cell lines were cultured in RPMI 1640 medium containing 10% fetal bovine serum (FBS), 100 IU/mL penicillin and 100 µg/mL streptomycin; Human umbilical vein endothelial cells (HUVECs) were cultured on gelatin-coated culture flasks in M-199 medium with 20% fetal bovine serum (FBS), 2 ng/mL VEGF, 10 ng/mL basic FGF, 100 IU/mL penicillin, and 100 μg/mL streptomycin; all of them were obtained from the American Type Culture Collection (ATCC) and all cell lines were incubated in an atmosphere of 5% CO2 at 37 °C.
(§2) Cells were treated with various concentrations of compound in 96-well culture plates for 24 h in final volumes of 200 μL (5 × 10^3 cells/well). Then 20 μL of MTT solution (5 mg/mL) was added to each well, and cells were incubated for an additional 3 h. Then the medium was carefully removed, and precipitates were dissolved in 150 μL of DMSO, shaken mechanically for 30 min, and then absorbance values at a wavelength of 570 nm were taken on a spectrophotometer (Molecular Devices, Sunnyvale, CA, USA). Values were calculated using percentage of growth versus untreated control. The IC50 was defined as the concentration that caused 50% inhibition of cell proliferation, and was calculated by SAS statistical software.

HCT116 = assay: MTT assay, cell proliferation; format: cell-based; conditions: read-out: IC50, inhibition of cell proliferation
Method: as §1, §2

HeLa = assay: MTT assay, cell proliferation; format: cell-based; conditions: 24 h, read-out: IC50, inhibition of cell proliferation
Method: as §1, §2

HepG2 = assay: MTT assay, cell proliferation; format: cell-based; conditions: 24 h, read-out: IC50, inhibition of cell proliferation
Method: as §1, §2

K562 = assay: MTT assay, cell proliferation; format: cell-based; conditions: 24 h, read-out: IC50, inhibition of cell proliferation
Method: as §1, §2

HUVEC = assay: MTT assay, cell proliferation; format: cell-based, Human; conditions: 24 h, read-out: IC50, inhibition of cell proliferation
Method: Inhibiting the proliferation of ECs is another important strategy for antiangiogenesis. […] As the exposure time of these derivatives was 24 h in the migration assay and 6 h in the tube formation assay, the effect of the incubation for 24 h in the presence of these compounds on HUVECs proliferation was then tested. Cell viability was assessed by the MTT method. We can see from Table 4 that these compounds had different antiproliferative activities.
as §1, §2

LO2 = assay: MTT assay, cytotoxicity; format: cell-based; conditions: read-out: IC50, inhibition of cell proliferation
Method: as §1, §2

[1] = test system: transgenic fli-1: enhanced GFP zebrafish embryos; assay: Zebrafish embryo assay: antiangiogenic effects; format: in vivo, zebrafish (Danio rerio); conditions: zebrafish embryos
Method: As stated previously, zebrafish is regarded as a powerful tool in the study of human diseases. […] In this study, all GA derivatives were incubated with the transgenic friend leukemia integration-1 (fli-1): enhanced GFP zebrafish embryos which carried a fli-1 promoter which can drive the expression of GFP in the whole endothelium.
Figure 1 Effects on neovascularization in zebrafish embryos. The transgenic fli-1: enhanced GFP zebrafish embryos in embryo water (0.2 g/L of instant ocean salt in distilled water) incubated with 1 μM of compounds at 6 h postfertilization (hpf) for 24 h. Zebrafish embryos were imaged (Imager.Z1, magnification: left, 40×; right, 100×).
Using transgenic fli-1: enhanced GFP zebrafish embryos, we investigated the effects of all compounds on angiogenesis. […] At about 6 h post fertilization (hpf), the embryos were sorted in the 6-well plate (six embryos/well), removing dead and unhealthy embryos. Then the embryos were treated with the indicated concentrations of compounds which were added into embryo water. After incubation for 24 or 48 h, the embryos were anesthetized using 0.05% 2-phenoxyethanol in embryo water, quantified and photographed.

Row | Compound | IC50 (A549) [µM] | IC50 (HCT116; 24 h) [µM] | IC50 (HeLa) [µM] | IC50 (HepG2) [µM] | IC50 (K562) [µM] | IC50 (HUVEC) [µM] | IC50 (LO2; 24 h) [µM] | IC50 (A549; Homo sapiens) [µM] | IC50 (HCT116; Homo sapiens, HCT-116, 24 h) [µM] | IC50 (HeLa; Homo sapiens) [µM] | IC50 (HepG2; Homo sapiens) [µM] | IC50 (K562; Homo sapiens) [µM] | IC50 (HUVEC; Homo sapiens) [µM] | IC50 (LO2; Homo sapiens, L02, 24 h) [µM] | antiangiogenic rates ([1]; 1 μM) | inhibition in vivo at 2.5 µM ([1]; Danio rerio, 2.5 μM, vs vehicle (0.05% DMSO), read-out: Anti-angiogenic phenotype) [%] | inhibition in vivo at 10 µM ([1]; Danio rerio, 10 μM, vs vehicle (0.05% DMSO), read-out: Anti-angiogenic phenotype) [%]
1 | 3-Ethanonephenyl gambogate [Compound 11] | 3.31 ± 0.45 | 3.13 ± 0.3 | 3.31 ± 0.24 | 3.64 ± 0.53 | 2.09 ± 0.19 | 3.48 ± 0.18 | 3.94 ± 0.19 |  |  |  |  |  |  |  |  |  | 
2 | CC(C)=CCCC1(C)C=Cc2c(O)c3c(c(CC=C(C)C)c2O1)OC12C(=CC4CC1C(C)(C)OC2(C/C=C(/C)C(=O)Oc1ccc(C)c([N+](=O)[O-])c1)C4=O)C3=O (centres unmarked) [Compound 1, 4-Methyl-3-nitrophenyl gambogate] |  |  |  |  |  |  |  | 43.5 ± 3.92 | 25.5 ± 1.79 | 32.9 ± 1.69 | 30.8 ± 2.76 | 10.2 ± 0.48 | 45.2 ± 2.64 |  |  |  | 
3 | CC(C)=CCCC1(C)C=Cc2c(O)c3c(c(CC=C(C)C)c2O1)OC12C(=CC4CC1C(C)(C)OC2(C/C=C(/C)C(=O)Oc1c(Br)ccc(F)c1F)C4=O)C3=O (centres unmarked) [Compound 2, 6-Bromo-2,3-difluorophenyl gambogate] |  |  |  |  |  |  |  | 49.1 ± 5.16 | 45.3 ± 4.2 | 57 ± 0.62 | 41.4 ± 3.52 | 16.1 ± 1.74 | 31.9 ± 1.27 |  |  |  | 
4 | C=CCc1ccc(OC(=O)/C(C)=C\CC23OC(C)(C)C4CC(C=C5C(=O)c6c(O)c7c(c(CC=C(C)C)c6OC542)OC(C)(CCC=C(C)C)C=C7)C3=O)c(OC)c1 (centres unmarked) [Compound 3, 4-Allyl-2-methoxyphenyl gambogate] |  |  |  |  |  |  |  | 38 ± 3.1 | 18.7 ± 0.97 | 13.1 ± 0.77 | 28.8 ± 2.84 | 8.18 ± 1.22 | 52.7 ± 1.15 |  |  |  | 
5 | CC(=O)c1ccc(OC(=O)/C(C)=C\CC23OC(C)(C)C4CC(C=C5C(=O)c6c(O)c7c(c(CC=C(C)C)c6OC542)OC(C)(CCC=C(C)C)C=C7)C3=O)c([N+](=O)[O-])c1 (centres unmarked) [Compound 5, 2-Nitro-4-ethanonephenyl gambogate] |  |  |  |  |  |  |  | 5.53 ± 0.4 | 5.47 ± 0.24 | 6.37 ± 0.11 | 9.45 ± 1.42 | 2.03 ± 0.2 | 4.39 ± 0.27 | 4.03 ± 0.34 |  |  | 
6 | CC(C)=CCCC1(C)C=Cc2c(O)c3c(c(CC=C(C)C)c2O1)OC12C(=CC4CC1C(C)(C)OC2(C/C=C(/C)C(=O)Oc1cc2ccccc2oc1=O)C4=O)C3=O (centres unmarked) [Compound 6, Coumarin-3-gambogate] |  |  |  |  |  |  |  | 19.7 ± 2.62 | 14.5 ± 1.22 | 33.3 ± 1.83 | 25.8 ± 1.76 | 5.47 ± 0.15 | 14.6 ± 0.34 | > 20 |  |  | 
7 | CC(C)=CCCC1(C)C=Cc2c(O)c3c(c(CC=C(C)C)c2O1)OC12C(=CC4CC1C(C)(C)OC2(C/C=C(/C)C(=O)Oc1ccc2ccc(=O)oc2c1)C4=O)C3=O (centres unmarked) [Compound 7, Coumarin-7-gambogate] |  |  |  |  |  |  |  | 15.4 ± 2.57 | 6 ± 0.4 | 16.1 ± 0.55 | 10.8 ± 1.1 | 2.5 ± 0.12 | 10.9 ± 0.72 | 8.28 ± 0.33 |  |  | 
8 | CC(C)=CCCC1(C)C=Cc2c(O)c3c(c(CC=C(C)C)c2O1)OC12C(=CC4CC1C(C)(C)OC2(C/C=C(/C)C(=O)Oc1cccc([N+](=O)[O-])c1)C4=O)C3=O (centres unmarked) [Compound 8, 3-Nitrophenyl gambogate] |  |  |  |  |  |  |  | > 80 | 66.4 ± 1.1 | > 80 | > 80 | 17.9 ± 1.38 | 77.5 ± 3.65 |  |  |  | 
9 | CC(C)=CCC/C(C)=C/COC(=O)/C(C)=C\CC12OC(C)(C)C3CC(C=C4C(=O)c5c(O)c6c(c(CC=C(C)C)c5OC431)OC(C)(CCC=C(C)C)C=C6)C2=O (centres unmarked) [Compound 10, Geraniol gambogate] |  |  |  |  |  |  |  | > 80 | > 80 | > 80 | > 80 | > 80 | > 80 |  |  |  | 
10 | CC(C)=CCCC1(C)C=Cc2c(O)c3c(c(CC=C(C)C)c2O1)OC12C(=CC4CC1C(C)(C)OC2(C/C=C(/C)C(=O)Oc1cccc(C#N)c1)C4=O)C3=O (centres unmarked) [Compound 12, 3-Cyanophenyl gambogate] |  |  |  |  |  |  |  | 10.7 ± 0.26 | 5.57 ± 0.26 | 7.1 ± 1.43 | 7.8 ± 0.11 | 1.79 ± 0.08 | 7.58 ± 1.36 | 5.15 ± 1.19 |  |  | 
11 | COc1ccc(OC(=O)/C(C)=C\CC23OC(C)(C)C4CC(C=C5C(=O)c6c(O)c7c(c(CC=C(C)C)c6OC542)OC(C)(CCC=C(C)C)C=C7)C3=O)cc1 (centres unmarked) [Compound 13, 4-Methoxyphenyl gambogate] |  |  |  |  |  |  |  | 66.8 ± 4.59 | 17.5 ± 1.59 | > 80 | 60.5 ± 4.24 | 8.05 ± 0.28 | 27.7 ± 2.77 |  |  |  | 
12 | CC(C)=CCCC1(C)C=Cc2c(O)c3c(c(CC=C(C)C)c2O1)OC12C(=CC4CC1C(C)(C)OC2(C/C=C(/C)C(=O)Oc1cccc(C)c1[N+](=O)[O-])C4=O)C3=O (centres unmarked) [Compound 14, 3-Methyl-2-nitrophenyl gambogate] |  |  |  |  |  |  |  | > 80 | 34.8 ± 1.84 | > 80 | 40.6 ± 2.75 | 22.6 ± 0.53 | 42 ± 2.76 | 70.8 ± 2.47 |  |  | 
13 | CC(C)=CCCC1(C)C=Cc2c(O)c3c(c(CC=C(C)C)c2O1)OC12C(=CC4CC1C(C)(C)OC2(C/C=C(/C)C(=O)Oc1cccc(C=O)c1)C4=O)C3=O (centres unmarked) [Compound 15, 3-Formylphenyl gambogate] |  |  |  |  |  |  |  | 33 ± 1.5 | 6.8 ± 0.78 | 62.6 ± 3.12 | 10.85 ± 0.06 | 6.11 ± 0.39 | 13.6 ± 1.16 | 14.8 ± 1.19 |  |  | 
14 | CC(C)=CCCC1(C)C=Cc2c(O)c3c(c(CC=C(C)C)c2O1)OC12C(=CC4CC1C(C)(C)OC2(C/C=C(/C)C(=O)Oc1ccccc1Br)C4=O)C3=O (centres unmarked) [Compound 17, 2-Bromophenyl gambogate] |  |  |  |  |  |  |  | > 80 | 33 ± 1.27 | > 80 | 61.9 ± 2.69 | 27 ± 1.41 | 29.9 ± 1.44 | 72.8 ± 2.84 |  |  | 
15 | COc1ccc(-c2csc(NC(=O)/C(C)=C\CC34OC(C)(C)C5CC(C=C6C(=O)c7c(O)c8c(c(CC=C(C)C)c7OC653)OC(C)(CCC=C(C)C)C=C8)C4=O)n2)cc1 (centres unmarked) [Compound 31, 4-(4-Methoxyphenyl)thiazol-2-gambogamide] |  |  |  |  |  |  |  | 61.6 ± 1.73 | 18.9 ± 1.34 | 57.9 ± 2.6 | 49.2 ± 4.31 | 13.7 ± 0.56 | 30.2 ± 2.04 |  | inactive | < 25 | 25 to 50
